According to ChEMBL document CHEMBL4765227, “Hit to lead optimization of a series of N-[4-(1,3-benzothiazol-2-yl)phenyl]acetamides as monoacylglycerol lipase inhibitors with potential anticancer activity” (Eur J Med Chem, 2016):

Key:
Assay type in all cases: functional
Conditions in all cases: read-out: GI
UACC-257 = assay: Growth inhibition of human UACC-257 cells at 10 uM incubated for 48 hrs by sulforhodamine B assay relative to control
OVCAR-5 = assay: Growth inhibition of human OVCAR-5 cells at 10 uM incubated for 48 hrs by sulforhodamine B assay relative to control
SF-539 = assay: Growth inhibition of human SF-539 cells at 10 uM incubated for 48 hrs by sulforhodamine B assay relative to control
HL-60(TB) = assay: Growth inhibition of human HL-60(TB) cells at 10 uM incubated for 48 hrs by sulforhodamine B assay relative to control
MDA-MB-468 = assay: Growth inhibition of human MDA-MB-468 cells at 10 uM incubated for 48 hrs by sulforhodamine B assay relative to control
OVCAR-4 = assay: Growth inhibition of human OVCAR-4 cells at 10 uM incubated for 48 hrs by sulforhodamine B assay relative to control
MCF7 = assay: Growth inhibition of human MCF7 cells at 10 uM incubated for 48 hrs by sulforhodamine B assay relative to control
OVCAR-8 = assay: Growth inhibition of human OVCAR-8 cells at 10 uM incubated for 48 hrs by sulforhodamine B assay relative to control
DU-145 = assay: Growth inhibition of human DU-145 cells at 10 uM incubated for 48 hrs by sulforhodamine B assay relative to control
RXF 393 = assay: Growth inhibition of human RXF 393 cells at 10 uM incubated for 48 hrs by sulforhodamine B assay relative to control
SF-268 = assay: Growth inhibition of human SF-268 cells at 10 uM incubated for 48 hrs by sulforhodamine B assay relative to control
HOP-92 = assay: Growth inhibition of human HOP-92 cells at 10 uM incubated for 48 hrs by sulforhodamine B assay relative to control
MOLT-4 = assay: Growth inhibition of human MOLT-4 cells at 10 uM incubated for 48 hrs by sulforhodamine B assay relative to control
SN12C = assay: Growth inhibition of human SN12C cells at 10 uM incubated for 48 hrs by sulforhodamine B assay relative to control
NCI-H522 = assay: Growth inhibition of human NCI-H522 cells at 10 uM incubated for 48 hrs by sulforhodamine B assay relative to control
SNB-19 = assay: Growth inhibition of human SNB-19 cells at 10 uM incubated for 48 hrs by sulforhodamine B assay relative to control
OVCAR-3 = assay: Growth inhibition of human OVCAR-3 cells at 10 uM incubated for 48 hrs by sulforhodamine B assay relative to control
NCI-H226 = assay: Growth inhibition of human NCI-H226 cells at 10 uM incubated for 48 hrs by sulforhodamine B assay relative to control
TK-10 = assay: Growth inhibition of human TK-10 cells at 10 uM incubated for 48 hrs by sulforhodamine B assay relative to control
UACC-62 = assay: Growth inhibition of human UACC-62 cells at 10 uM incubated for 48 hrs by sulforhodamine B assay relative to control
SK-MEL-28 = assay: Growth inhibition of human SK-MEL-28 cells at 10 uM incubated for 48 hrs by sulforhodamine B assay relative to control
IGROV-1 = assay: Growth inhibition of human IGROV-1 cells at 10 uM incubated for 48 hrs by sulforhodamine B assay relative to control
LOX IMVI = assay: Growth inhibition of human LOX IMVI cells at 10 uM incubated for 48 hrs by sulforhodamine B assay relative to control
NCI/ADR-RES = assay: Growth inhibition of human NCI/ADR-RES cells at 10 uM incubated for 48 hrs by sulforhodamine B assay relative to control
K562 = assay: Growth inhibition of human K562 cells at 10 uM incubated for 48 hrs by sulforhodamine B assay relative to control
Hs-578T = assay: Growth inhibition of human Hs-578T cells at 10 uM incubated for 48 hrs by sulforhodamine B assay relative to control
CCRF-CEM = assay: Growth inhibition of human CCRF-CEM cells at 10 uM incubated for 48 hrs by sulforhodamine B assay relative to control
HCC 2998 = assay: Growth inhibition of human HCC 2998 cells at 10 uM incubated for 48 hrs by sulforhodamine B assay relative to control
HT-29 = assay: Growth inhibition of human HT-29 cells at 10 uM incubated for 48 hrs by sulforhodamine B assay relative to control
BT-549 = assay: Growth inhibition of human BT-549 cells at 10 uM incubated for 48 hrs by sulforhodamine B assay relative to control
MDA-MB-435 = assay: Growth inhibition of human MDA-MB-435 cells at 10 uM incubated for 48 hrs by sulforhodamine B assay relative to control
SNB-75 = assay: Growth inhibition of human SNB-75 cells at 10 uM incubated for 48 hrs by sulforhodamine B assay relative to control
SK-MEL-5 = assay: Growth inhibition of human SK-MEL-5 cells at 10 uM incubated for 48 hrs by sulforhodamine B assay relative to control
NCI-H23 = assay: Growth inhibition of human NCI-H23 cells at 10 uM incubated for 48 hrs by sulforhodamine B assay relative to control
Malme-3M = assay: Growth inhibition of human Malme-3M cells at 10 uM incubated for 48 hrs by sulforhodamine B assay relative to control
PC-3 = assay: Growth inhibition of human PC-3 cells at 10 uM incubated for 48 hrs by sulforhodamine B assay relative to control
HCT-116 = assay: Growth inhibition of human HCT-116 cells at 10 uM incubated for 48 hrs by sulforhodamine B assay relative to control
MDA-MB-231 = assay: Growth inhibition of human MDA-MB-231 cells at 10 uM incubated for 48 hrs by sulforhodamine B assay relative to control
SF-295 = assay: Growth inhibition of human SF-295 cells at 10 uM incubated for 48 hrs by sulforhodamine B assay relative to control
M14 = assay: Growth inhibition of human M14 cells at 10 uM incubated for 48 hrs by sulforhodamine B assay relative to control
HCT-15 = assay: Growth inhibition of human HCT-15 cells at 10 uM incubated for 48 hrs by sulforhodamine B assay relative to control
UO-31 = assay: Growth inhibition of human UO-31 cells at 10 uM incubated for 48 hrs by sulforhodamine B assay relative to control
KM12 = assay: Growth inhibition of human KM12 cells at 10 uM incubated for 48 hrs by sulforhodamine B assay relative to control
COLO 205 = assay: Growth inhibition of human COLO 205 cells at 10 uM incubated for 48 hrs by sulforhodamine B assay relative to control

O=C(Cn1ccc2ccccc21)Nc1ccc(-c2nc3ccccc3s2)cc1
inhibition of growth at 10 µM (UACC-257): -0.08%
inhibition of growth at 10 µM (OVCAR-5): -3.94%
inhibition of growth at 10 µM (SF-539): -2.36%
inhibition of growth at 10 µM (HL-60(TB)): 0.1%
inhibition of growth at 10 µM (MDA-MB-468): 150%
inhibition of growth at 10 µM (OVCAR-4): -2.92%
inhibition of growth at 10 µM (MCF7): 61.8%
inhibition of growth at 10 µM (OVCAR-8): -4.73%
inhibition of growth at 10 µM (DU-145): -0.67%
inhibition of growth at 10 µM (RXF 393): -12.6%
inhibition of growth at 10 µM (SF-268): 3.37%
inhibition of growth at 10 µM (HOP-92): -4.8%
inhibition of growth at 10 µM (MOLT-4): 5.48%
inhibition of growth at 10 µM (SN12C): -1.09%
inhibition of growth at 10 µM (NCI-H522): -1.58%
inhibition of growth at 10 µM (SNB-19): 1.41%
inhibition of growth at 10 µM (OVCAR-3): -2.19%
inhibition of growth at 10 µM (NCI-H226): -2.24%
inhibition of growth at 10 µM (TK-10): -3.65%
inhibition of growth at 10 µM (UACC-62): 5.01%
inhibition of growth at 10 µM (SK-MEL-28): -13.7%
inhibition of growth at 10 µM (IGROV-1): 26.2%
inhibition of growth at 10 µM (LOX IMVI): 8.68%
inhibition of growth at 10 µM (NCI/ADR-RES): -0.33%
inhibition of growth at 10 µM (K562): -3.37%
inhibition of growth at 10 µM (Hs-578T): 2.29%
inhibition of growth at 10 µM (CCRF-CEM): 2.97%
inhibition of growth at 10 µM (HCC 2998): -3.48%
inhibition of growth at 10 µM (HT-29): -14.7%
inhibition of growth at 10 µM (BT-549): -5.34%
inhibition of growth at 10 µM (MDA-MB-435): -3.52%
inhibition of growth at 10 µM (SNB-75): 6.21%
inhibition of growth at 10 µM (SK-MEL-5): 1.44%
inhibition of growth at 10 µM (NCI-H23): 5.98%
inhibition of growth at 10 µM (Malme-3M): -8.06%
inhibition of growth at 10 µM (PC-3): 2.02%
inhibition of growth at 10 µM (HCT-116): -1.55%
inhibition of growth at 10 µM (MDA-MB-231): -7.77%
inhibition of growth at 10 µM (SF-295): -3.08%
inhibition of growth at 10 µM (M14): -8.41%
inhibition of growth at 10 µM (HCT-15): -10.2%
inhibition of growth at 10 µM (UO-31): 7.58%
inhibition of growth at 10 µM (KM12): -6.39%
inhibition of growth at 10 µM (COLO 205): -0.82%

O=C(Cn1cncn1)Nc1ccc(-c2nc3ccccc3s2)cc1
inhibition of growth at 10 µM (UACC-257): -2.17%
inhibition of growth at 10 µM (OVCAR-5): -15%
inhibition of growth at 10 µM (SF-539): -7.74%
inhibition of growth at 10 µM (HL-60(TB)): -2.11%
inhibition of growth at 10 µM (MDA-MB-468): 130%
inhibition of growth at 10 µM (OVCAR-4): 19.4%
inhibition of growth at 10 µM (MCF7): 63.9%
inhibition of growth at 10 µM (OVCAR-8): 5.43%
inhibition of growth at 10 µM (DU-145): 5.46%
inhibition of growth at 10 µM (RXF 393): -25.3%
inhibition of growth at 10 µM (SF-268): 2.87%
inhibition of growth at 10 µM (HOP-92): 6.49%
inhibition of growth at 10 µM (MOLT-4): 8.15%
inhibition of growth at 10 µM (SN12C): 4.85%
inhibition of growth at 10 µM (NCI-H522): 12.5%
inhibition of growth at 10 µM (SNB-19): 6.99%
inhibition of growth at 10 µM (OVCAR-3): 8.95%
inhibition of growth at 10 µM (NCI-H226): 25%
inhibition of growth at 10 µM (TK-10): -6.22%
inhibition of growth at 10 µM (UACC-62): 4.77%
inhibition of growth at 10 µM (SK-MEL-28): -11%
inhibition of growth at 10 µM (IGROV-1): 7.64%
inhibition of growth at 10 µM (LOX IMVI): 0.66%
inhibition of growth at 10 µM (NCI/ADR-RES): -1.6%
inhibition of growth at 10 µM (K562): 14.2%
inhibition of growth at 10 µM (Hs-578T): -3.42%
inhibition of growth at 10 µM (CCRF-CEM): -4.97%
inhibition of growth at 10 µM (HCC 2998): 6.06%
inhibition of growth at 10 µM (HT-29): -4.68%
inhibition of growth at 10 µM (BT-549): 8.47%
inhibition of growth at 10 µM (MDA-MB-435): -4.86%
inhibition of growth at 10 µM (SNB-75): 7.87%
inhibition of growth at 10 µM (SK-MEL-5): 13.3%
inhibition of growth at 10 µM (NCI-H23): 12.5%
inhibition of growth at 10 µM (Malme-3M): -0.27%
inhibition of growth at 10 µM (PC-3): 14.2%
inhibition of growth at 10 µM (HCT-116): 4.58%
inhibition of growth at 10 µM (MDA-MB-231): 3.55%
inhibition of growth at 10 µM (SF-295): 8.06%
inhibition of growth at 10 µM (M14): -11.2%
inhibition of growth at 10 µM (HCT-15): -1.4%
inhibition of growth at 10 µM (UO-31): 23.1%
inhibition of growth at 10 µM (KM12): 1.84%
inhibition of growth at 10 µM (COLO 205): -6.86%
